Columns and labels:
human FGFR4 = biological target: T1, human FGFR4 (Homo sapiens, UniProt P22455); assay: 33P isotope-labeled kinase activity test, FGFR4; assay type: biochemical; settings: ATP 100 μM
T1 construct: purchased Invitrogen P3054
Experimental: (§1) The inhibitory activities of the tested compounds on human FGFR1, FGFR4, and c-Met were evaluated by the IC50 values measured using ^33P isotope-labeled kinase activity test (Reaction Biology Corp).
(§2) Buffer condition: 20 mM Hepes (pH 7.5), 10 mM MgCl2, 1 mM EGTA, 0.02% Brij35, 0.02 mg/mL BSA, 0.1 mM Na3VO4, 2 mM DTT, 1% DMSO.
(§3) Test procedure: The test compounds were dissolved in DMSO at room temperature and formulated to be 10 mM solutions for later use. The substrates were dissolved in freshly prepared buffer, and kinases to be tested were added and mixed well. The test compounds dissolved in DMSO were added to the above mixed reaction solutions by acoustic technique (Echo 550). The concentration of the compound in reaction solution was 1 μM, 0.25 μM, 0.156 μM, 3.91 nM, 0.977 nM, 0.244 nM, 0.061 nM, 0.0153 nM, 0.00381 nM or 10 μM, 2.50 μM, 0.62 μM, 0.156 μM, 39.1 nM, 9.8 nM, 2.4 nM, 0.61 nM, 0.15 nM, 0.038 nM. After incubation for 15 min, ^33P-ATP (activity 0.01 μCi/μL, corresponding concentrations are listed in Table 1) was added to start the reaction. Supplier item number, batch number, as well as the concentration information in the reaction solution of FGFR1, FGFR4, c-Met and substrates thereof are listed in Table 1. […] The kinase activity data are expressed by comparison between the kinase activity in the test compound group and the kinase activity in the blank group (containing DMSO only). IC50 values were obtained by curve fitting with Prism4 software (GraphPad).

[1] = Pharmacokinetic evaluation in mice (IV and PO); assay type: in vivo, male CD-1 mice; settings: for AUC(0-t) / bioavailability / Cmax / Tmax / clearance / half-life / Vd: male, plasma; for bioavailability: PO 10 mg/kg vs IV 2 mg/kg, read-out: F (bioavailability); for Cmax: read-out: Cmax (peak concentration); for Tmax: read-out: Tmax (time to peak); for clearance: read-out: Cl (plasma clearance); for half-life: read-out: T1/2 (elimination half-life) (converted); for Vd: read-out: Vdss (steady-state apparent volume of distribution); for oral bioavailability (in words): oral administration
Experimental: Experimental Procedure: 0.4 mg/mL clear solution of the test compounds in a specific menstruum was injected intravenously into male CD-1 nude mice (overnight fasting, aged 7-9 weeks) via caudal vein at a dose of 2 mg/kg. About 30 μL of blood was collected from jugular or caudal vein at 0.0833, 0.25, 0.5, 1.0, 2.0, 4.0, 8.0 and 24 h after intravenous administration. […] About 30 μL of blood was collected from jugular or caudal vein of the male CD-1 mice at 0.0833, 0.25, 0.5, 1.0, 2.0, 4.0, 8.0 and 24 h after oral administration. The blood samples were added into anticoagulant tubes containing EDTA-K2, and then centrifuged to separate the plasma. LC-MS/MS method was used to determine the drug concentration in blood, and WinNonlin™ Version 6.3 (Pharsight, Mountain View, CA) pharmacokinetic software was used to calculate the relevant pharmacokinetic parameters by non-compartment model linear logarithmic trapezoidal method.
Note: Plasma clearance (Cl) mL/min/kg, steady-state apparent volume of distribution (Vdss) L/kg, elimination half-life (T1/2) and area under the plasma concentration curve from point 0 to the last measurable time point (AUC0-last), bioavailability F %, peak concentration (Cmax), time to peak Tmax

[2] = system: SNU-16 transplantation tumor model; assay: In vivo pharmacodynamic evaluation, SNU-16 gastric cancer transplantation tumor model; design: species or system nude mice; settings: SNU-16 transplantation model
Experimental: Method of establishing SNU-16 gastric cancer model: SNU-16 cells in logarithmic growth phase were collected, and the cells were resuspended in 50% PBS (pH 7.4, 0.01 M) and 50% Matrigel after cell counting. The cell concentration was adjusted to 4×10^7 cells/mL; the cells were placed in an ice box, and the cell suspension was aspirated with a 1-mL syringe and subcutaneously injected into nude mice via the anterior right armpit. Each animal was inoculated with 200 μL (8×10^6 cells/each) to establish the SNU-16 transplantation tumor model. The animals were observed regularly, and the tumor diameters were measured using an electronic vernier caliper. The data were inputted an Excel spreadsheet to calculate the tumor volume and monitor the tumor growth. When the tumor volume reached 100-300 mm^3, mice bearing similar tumor volume and in good health condition were selected. Randomization method was used for animal grouping; the number of animals in each group was n=7, and the average tumor volume of each group was about 145 mm^3. After the experiment started, tumor diameters were measured and tumor volume was calculated twice a week, and the weight of animals was weighed and recorded.
Tumor growth inhibition (TGI) was used to analyze the tumor growth trend and evaluated by tumor volume over time. The long axis (L) and short axis (W) of the subcutaneous tumors were measured twice a week by a caliper, and the tumor volume (TV) was calculated by the formula ((L×W^2)/2).
The experimental data were calculated and statistically processed by SPSS 19.0. Unless otherwise stated, data were expressed as mean f standard error (Mean±SE), and comparisons between two groups were analyzed by t-test. p<0.05 indicates a significant difference. The solvent 30% PEG400 (containing 70% deionized water, v/v) was used as negative control.

human c-Met = biological target: T2, human c-Met (Homo sapiens, UniProt P08581); assay: 33P isotope-labeled kinase activity test, c-Met; assay type: biochemical; settings: ATP 10 μM
T2 construct: purchased Invitrogen PV3143
Experimental: as §1, §2, §3

human FGFR1 = biological target: T3, human FGFR1 (Homo sapiens, UniProt P11362); assay: 33P isotope-labeled kinase activity test, FGFR1; assay type: biochemical; settings: ATP 5 μM
T3 construct: purchased Invitrogen PV3146
Experimental: as §1, §2
as §3, with “The concentration of the compound in reaction solution was 1 μM, 0.25 μM, 0.156 μM, 3.91 nM, 0.977 nM, 0.244 nM, 0.061 nM, 0.0153 nM, 0.00381 nM or 10 μM, 2.50 μM, 0.62 μM, 0.156 μM, 39.1 nM, 9.8 nM, 2.4 nM, 0.61 nM, 0.15 nM, 0.038 nM.” left out

T2 sequence (P08581 25-1390): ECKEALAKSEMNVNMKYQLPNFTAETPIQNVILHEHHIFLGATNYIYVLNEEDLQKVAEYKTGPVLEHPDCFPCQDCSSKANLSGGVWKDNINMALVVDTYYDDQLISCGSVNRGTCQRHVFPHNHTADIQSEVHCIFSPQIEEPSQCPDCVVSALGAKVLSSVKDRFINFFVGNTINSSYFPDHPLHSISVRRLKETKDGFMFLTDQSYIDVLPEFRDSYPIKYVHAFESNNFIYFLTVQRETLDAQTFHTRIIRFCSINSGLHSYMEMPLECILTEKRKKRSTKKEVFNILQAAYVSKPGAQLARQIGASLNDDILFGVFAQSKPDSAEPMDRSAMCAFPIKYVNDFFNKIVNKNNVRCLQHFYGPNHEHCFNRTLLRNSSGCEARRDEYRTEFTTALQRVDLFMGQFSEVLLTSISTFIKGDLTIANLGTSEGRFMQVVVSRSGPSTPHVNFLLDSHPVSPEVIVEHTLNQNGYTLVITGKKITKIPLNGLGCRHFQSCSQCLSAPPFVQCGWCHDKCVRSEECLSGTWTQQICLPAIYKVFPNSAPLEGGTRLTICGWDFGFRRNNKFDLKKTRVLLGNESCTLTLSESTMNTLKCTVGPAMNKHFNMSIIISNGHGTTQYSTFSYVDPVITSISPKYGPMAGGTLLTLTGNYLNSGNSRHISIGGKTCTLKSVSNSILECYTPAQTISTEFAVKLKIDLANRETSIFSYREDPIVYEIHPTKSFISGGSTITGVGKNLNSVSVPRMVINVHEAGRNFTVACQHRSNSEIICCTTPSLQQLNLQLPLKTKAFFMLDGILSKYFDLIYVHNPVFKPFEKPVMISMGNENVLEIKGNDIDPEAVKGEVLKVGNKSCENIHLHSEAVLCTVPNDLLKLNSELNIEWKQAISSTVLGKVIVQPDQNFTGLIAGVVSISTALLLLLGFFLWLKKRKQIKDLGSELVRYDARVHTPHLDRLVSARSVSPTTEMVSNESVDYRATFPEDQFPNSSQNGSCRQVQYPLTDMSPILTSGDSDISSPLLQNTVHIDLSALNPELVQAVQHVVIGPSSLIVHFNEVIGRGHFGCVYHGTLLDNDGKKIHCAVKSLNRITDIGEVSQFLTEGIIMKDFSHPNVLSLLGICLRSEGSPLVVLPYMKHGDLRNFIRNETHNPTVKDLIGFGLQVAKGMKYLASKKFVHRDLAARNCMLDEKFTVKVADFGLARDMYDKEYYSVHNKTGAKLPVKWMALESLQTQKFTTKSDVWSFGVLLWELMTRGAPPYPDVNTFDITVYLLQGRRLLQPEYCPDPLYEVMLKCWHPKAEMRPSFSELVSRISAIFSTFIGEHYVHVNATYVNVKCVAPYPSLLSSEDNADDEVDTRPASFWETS
T3 sequence (P11362 22-822): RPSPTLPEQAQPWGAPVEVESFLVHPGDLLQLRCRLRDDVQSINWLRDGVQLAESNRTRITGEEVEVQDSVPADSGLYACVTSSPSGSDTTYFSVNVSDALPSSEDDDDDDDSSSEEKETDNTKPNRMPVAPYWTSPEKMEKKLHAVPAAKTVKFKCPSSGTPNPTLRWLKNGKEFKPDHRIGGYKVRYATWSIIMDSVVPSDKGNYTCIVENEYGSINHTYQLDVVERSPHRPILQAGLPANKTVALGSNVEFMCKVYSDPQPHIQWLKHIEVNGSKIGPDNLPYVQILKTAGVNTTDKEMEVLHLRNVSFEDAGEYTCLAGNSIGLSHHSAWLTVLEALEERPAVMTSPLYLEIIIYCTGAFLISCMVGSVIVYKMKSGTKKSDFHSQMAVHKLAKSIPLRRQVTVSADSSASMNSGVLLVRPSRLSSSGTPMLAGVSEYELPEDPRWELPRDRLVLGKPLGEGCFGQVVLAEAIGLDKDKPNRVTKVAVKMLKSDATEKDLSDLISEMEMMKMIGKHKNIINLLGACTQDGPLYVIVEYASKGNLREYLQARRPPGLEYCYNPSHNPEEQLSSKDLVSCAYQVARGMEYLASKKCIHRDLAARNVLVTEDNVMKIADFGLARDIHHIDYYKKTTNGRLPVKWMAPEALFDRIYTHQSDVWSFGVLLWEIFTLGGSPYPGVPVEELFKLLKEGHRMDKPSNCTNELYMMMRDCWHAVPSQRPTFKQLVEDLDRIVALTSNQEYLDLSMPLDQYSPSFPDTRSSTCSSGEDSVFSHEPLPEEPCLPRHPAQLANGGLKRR
T1 sequence (P22455 22-802): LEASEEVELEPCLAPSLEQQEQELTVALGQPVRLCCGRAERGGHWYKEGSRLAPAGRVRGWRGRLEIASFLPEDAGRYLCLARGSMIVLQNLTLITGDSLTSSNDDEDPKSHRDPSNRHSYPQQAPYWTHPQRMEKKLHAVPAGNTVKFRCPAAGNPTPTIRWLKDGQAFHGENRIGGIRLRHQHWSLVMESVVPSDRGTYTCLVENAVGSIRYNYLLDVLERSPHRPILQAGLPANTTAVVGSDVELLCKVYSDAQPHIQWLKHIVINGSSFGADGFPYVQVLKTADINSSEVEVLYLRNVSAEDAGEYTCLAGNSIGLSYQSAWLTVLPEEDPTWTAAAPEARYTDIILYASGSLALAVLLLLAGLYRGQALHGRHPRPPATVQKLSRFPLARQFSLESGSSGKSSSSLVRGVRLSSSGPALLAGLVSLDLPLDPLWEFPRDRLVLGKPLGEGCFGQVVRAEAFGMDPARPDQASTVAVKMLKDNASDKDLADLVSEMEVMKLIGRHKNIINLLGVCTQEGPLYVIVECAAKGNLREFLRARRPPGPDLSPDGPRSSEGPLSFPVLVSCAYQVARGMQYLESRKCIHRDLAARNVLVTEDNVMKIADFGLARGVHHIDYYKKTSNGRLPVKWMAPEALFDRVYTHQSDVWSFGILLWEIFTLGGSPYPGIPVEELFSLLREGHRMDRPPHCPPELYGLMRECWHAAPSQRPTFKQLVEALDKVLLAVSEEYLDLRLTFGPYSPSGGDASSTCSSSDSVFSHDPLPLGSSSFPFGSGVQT

With `COc1nc(OC)c(F)c(Cc2c[nH]c3ncc(-c4cnn(CCO)c4)cc23)c1F` [Embodiment 48] the IC50 (human FGFR4) was 1.7 nM, the AUC(0-t) ([1]; CD-1, mouse, PO 10 mg/kg) was 3.23 µM·h and the bioavailability ([1]; CD-1, mouse) was 21.5%. It also gave a Cmax ([1]; CD-1, mouse, PO 10 mg/kg) of 877 nM, a Tmax ([1]; CD-1, mouse, PO 10 mg/kg) of 1.3 h and an AUC(0-t) ([1]; CD-1 nude, mouse, IV 2 mg/kg) of 3.15 µM·h. It also gave a clearance ([1]; CD-1 nude, mouse, IV 2 mg/kg) of 25.3 mL/min/kg, a half-life ([1]; CD-1 nude, mouse, IV 2 mg/kg) of 1.1 h and a Vd ([1]; CD-1 nude, mouse, IV 2 mg/kg) of 2.1 L/kg. The “oral bioavailability (in words)” value [1] was “moderate bioavailability”, the “TGI % (the last administration on the 21th day)” value (from here on “TGI %”) ([2]; 10 mg/KG QD) was 77% and the IC50 (human c-Met) was 6.3 nM. For the same compound, the IC50 (human FGFR1) was 0.3 nM.

`COc1cc(OC)c(F)c(Cc2c[nH]c3ncc(-c4cnn(CCO)c4)cc23)c1F` [Embodiment 46] showed an AUC(0-t) ([1]; CD-1, mouse, PO 10 mg/kg) of 16.6 µM·h, a bioavailability ([1]; CD-1, mouse) of 86.6% and a Cmax ([1]; CD-1, mouse, PO 10 mg/kg) of 5040 nM. For the same compound, the Tmax ([1]; CD-1, mouse, PO 10 mg/kg) was 1 h, the AUC(0-t) ([1]; CD-1 nude, mouse, IV 2 mg/kg) was 3.79 µM·h and the clearance ([1]; CD-1 nude, mouse, IV 2 mg/kg) was 21.2 mL/min/kg. For the same compound, the half-life ([1]; CD-1 nude, mouse, IV 2 mg/kg) was 1.1 h, the Vd ([1]; CD-1 nude, mouse, IV 2 mg/kg) was 1.7 L/kg and the “oral bioavailability (in words)” value [1] was “high oral bioavailability”. The “TGI %” value ([2]; 5 mg/KG BID) was 98% and the “TGI %” value ([2]; 10 mg/KG QD) was 80%.

Reference: patent US12312347B2, “Azaindole derivative and use thereof as FGFR and C-Met inhibitor” (Wuxi Life Fountain Biotech Co., Ltd, priority 2018, dated 2025)
